# Laboratory results taken from article PMC12138161, “Structure–activity analysis of imino‐pyrimidinone‐fused pyrrolidines aids the development of dual plasmepsin V and plasmepsin X inhibitors” (The Febs Journal, 2025).
# Several values for one entry are separate records, joined by “and”; a condition that tells them apart may be missing. Equal entries are not always repeated. Where two headings read alike, the source gives them in different places.
# How the values were obtained:
# [1] = target: T1, recombinant Plasmodium vivax PMV (Plasmodium vivax, UniProt A5K302); test: Plasmepsin V fluorogenic substrate cleavage assay; type: biochemical; conditions: for IC50: recombinant P. vivax PMV, average of three independent experiments, read-out: PMV IC50 (SD)
# T1 construct: PvPMV (residues R35–R476) was prepared similarly; gp67 signal peptide (N); TEV protease cleavage site + FLAG tag (C); made in house; host or cells: Sf21 insect cells
# T1 sequence (A5K302 35-476): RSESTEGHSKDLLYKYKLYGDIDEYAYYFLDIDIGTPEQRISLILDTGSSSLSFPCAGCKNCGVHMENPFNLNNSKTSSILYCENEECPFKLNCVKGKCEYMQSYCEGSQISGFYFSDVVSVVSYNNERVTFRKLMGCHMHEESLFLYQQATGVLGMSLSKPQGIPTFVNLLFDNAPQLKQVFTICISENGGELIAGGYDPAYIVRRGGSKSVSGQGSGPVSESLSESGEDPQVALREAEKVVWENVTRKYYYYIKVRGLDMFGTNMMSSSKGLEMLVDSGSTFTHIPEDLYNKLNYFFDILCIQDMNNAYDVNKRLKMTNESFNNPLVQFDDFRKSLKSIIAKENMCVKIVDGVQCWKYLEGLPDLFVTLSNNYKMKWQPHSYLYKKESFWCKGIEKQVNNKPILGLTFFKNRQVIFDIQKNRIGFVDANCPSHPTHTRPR
# Excerpt: To uncover nonpeptidomimetic drug‐like inhibitors of the aspartic protease PvPMV, we screened a library of 1298 compounds that were known to inhibit human aspartyl proteases. These compounds were selected by chemoinformatic structural diversity from a larger library of compounds that targeted human aspartyl proteases and has been used previously to identify hit compounds that inhibited P. falciparum growth. These hit compounds belonged to a single chemical class and were used to develop a lead compound WM382 that is a dual selective inhibitor of PMIX and PMX from P. falciparum and P. vivax. The screen utilized a FRET‐based assay with PvPMV and a fluorogenic EDANS‐DACBYL labeled peptide with the P. falciparum knob‐associated histidine‐rich protein (KAHRP) PEXEL motif amino acid sequence.
# (§1) These fluorogenic assays follow protocols previously described. Compound potency was assessed with 10 point, threefold dilution series starting at 100 μM in duplicate per experiment and repeated in three independent experiments. Data were normalized to percent inhibition relative to 1% DMSO (high control) and either 1 μM WEHI‐600 for PMV and 1 μM WM382 for PMIX/PMX (low controls). IC50 values (relative inflection of dose–response curve) were calculated using a nonlinear regression four‐parameter fit analysis in DOTMATICS 5.3 (Dotmatics, Boston, MA, USA) and SPOTFIRE 7.11.1 (Goteborg, Sweden) software. The equation used was sigmoidal dose–response (variable slope), Y = bottom + (top − bottom)/(1 + 10 ((logIC50 − X) × Hill Slope)). Reported IC50 values were calculated based on the averages of three independent dataset. Assay robustness and data quality was assessed by Z′ > 0.5 (Z′ = 1 − (3 × (SD high + SD low)/(mean high − mean low))) and activity reproducibility of reference compound. WEHI‐600 (PMV) or WM382 (PMIX/PMX) were included as reference compounds in every experiment to monitor the assay performance. Any drift in activity greater than threefold from the average acceptable range and the experiment was rejected and repeated.
# [2] = target: T2, Plasmodium falciparum PMIX (Plasmodium falciparum, UniProt Q8ILG2); test: Plasmepsin IX fluorogenic substrate cleavage assay; type: biochemical; conditions: P. falciparum PMIX; average of three independent experiments; read-out: PMIX IC50 (SD)
# T2 sequence (Q8ILG2 1-627): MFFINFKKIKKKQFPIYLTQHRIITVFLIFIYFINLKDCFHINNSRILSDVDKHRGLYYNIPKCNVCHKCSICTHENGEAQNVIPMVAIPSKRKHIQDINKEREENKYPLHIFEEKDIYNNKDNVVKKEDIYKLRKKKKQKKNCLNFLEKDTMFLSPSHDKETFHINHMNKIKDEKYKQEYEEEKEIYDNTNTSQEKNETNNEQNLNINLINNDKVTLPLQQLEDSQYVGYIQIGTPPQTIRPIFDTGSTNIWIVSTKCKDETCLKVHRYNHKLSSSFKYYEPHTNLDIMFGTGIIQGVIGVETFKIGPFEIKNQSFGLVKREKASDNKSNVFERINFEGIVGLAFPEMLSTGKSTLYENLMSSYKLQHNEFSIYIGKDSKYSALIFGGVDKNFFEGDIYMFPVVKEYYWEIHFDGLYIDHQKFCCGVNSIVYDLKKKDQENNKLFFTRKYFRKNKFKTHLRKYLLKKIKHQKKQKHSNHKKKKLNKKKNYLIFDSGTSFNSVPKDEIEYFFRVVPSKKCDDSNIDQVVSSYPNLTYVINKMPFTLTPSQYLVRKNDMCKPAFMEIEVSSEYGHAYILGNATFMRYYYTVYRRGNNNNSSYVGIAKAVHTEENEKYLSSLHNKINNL
# Description: as §1
# P. falciparum PMX = P. falciparum PMX (Plasmodium falciparum, UniProt Q8IAS0); test: Plasmepsin X fluorogenic substrate cleavage assay; type: biochemical; conditions: for IC50: P. falciparum PMX, average of three independent experiments, read-out: PMX IC50 (SD)
# P. falciparum PMX, sequence (Q8IAS0 222-573): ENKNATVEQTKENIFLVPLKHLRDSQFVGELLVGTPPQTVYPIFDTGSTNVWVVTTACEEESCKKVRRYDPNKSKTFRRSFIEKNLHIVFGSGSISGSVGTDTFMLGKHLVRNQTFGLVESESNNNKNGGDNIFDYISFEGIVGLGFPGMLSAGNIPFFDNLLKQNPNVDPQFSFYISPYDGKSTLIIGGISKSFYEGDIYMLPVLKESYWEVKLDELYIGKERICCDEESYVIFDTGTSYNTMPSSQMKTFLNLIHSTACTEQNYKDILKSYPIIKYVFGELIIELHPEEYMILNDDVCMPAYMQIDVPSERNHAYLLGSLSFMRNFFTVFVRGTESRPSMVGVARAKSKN
# Description: as §1
# [3] = tested on: P. falciparum 3D7 asexual parasites; test: P. falciparum growth inhibition assay (LDH activity, 72 h); type: cell-based, Plasmodium falciparum; conditions: for EC50: Plasmodium falciparum, 3D7 asexual parasites, 72 h exposure, LDH activity, three independent experiments, read-out: Pf 3D7 EC50 (SD)
# Description: The ability of compounds to block growth of blood stage P. falciparum parasites was determined using a growth inhibition assay (GIA) as described. Compound potency was assessed with 10 point, threefold dilution series starting at 10 μM in duplicate per experiment and repeated in three independent experiments. Data were normalized to percent viability relative to 0.1% DMSO (high growth control) and 2.5 μM chloroquine (low growth control). EC50 values (relative inflection of dose–response curve) were calculated using a nonlinear regression four‐parameter fit analysis in DOTMATICS 5.3 and SPOTFIRE 7.11.1 software. The equation used was sigmoidal dose–response (variable slope), Y = bottom + (top − bottom)/(1 + 10 ((logEC50 − X) × Hill Slope)). Reported EC50 values were calculated on the average of three independent dataset. Assay robustness and data quality was assessed by Z′ > 0.5 (Z′ = 1 − (3 × (SD high + SD low)/(mean high − mean low))) and activity reproducibility of reference compound WM382, which was included in every experiment. Any drift in WM382 activity greater than threefold from the average acceptable range and the experiment was rejected and repeated.
# PMV = conditions: cited from earlier work
# PMIX = conditions: cited from earlier work
# PMX = conditions: cited from earlier work
# [4] = tested on: 3D7 strain of Plasmodium falciparum; conditions: blood stage growth, read-out: Pf 3D7 EC50; cited from earlier work
SMILES,IC50 [1],IC50 [2],IC50 (P. falciparum PMX),EC50 [3],further results
CN1C(=N)NC2(c3cc(F)ccc3F)CN(c3ncccc3-c3ccc(Cl)cc3F)CC2C1=O (centres unmarked) [Compound 16],780 nM,417 nM,1330 nM,> 10000 nM,
CN1C(=N)NC2(c3cc(F)ccc3F)CN(c3ncccc3-c3cccs3)CC2C1=O (centres unmarked) [Compound 24],1230 nM,1200 nM,67 nM,1770 nM,
COc1ccccc1-c1cccnc1N1CC2C(=O)N(C)C(=N)NC2(c2cc(F)ccc2F)C1 (centres unmarked) [Compound 11],303 nM,> 10000 nM,7500 nM,> 10000 nM,improvement of PMV inhibition ([1]; compared with WM36 (8)): 2.5 fold
CN1C(=N)NC2(c3cc(F)ccc3F)CN(c3ncccc3-c3cccc(Cl)c3)CC2C1=O (centres unmarked) [Compound 12],> 3700 nM,390 to 1170 nM and 560 nM,390 to 1170 nM and 390 nM,> 10000 nM,
COc1ccc(-c2cccnc2N2CC3C(=O)N(C)C(=N)NC3(c3cc(F)ccc3F)C2)cc1 (centres unmarked) [Compound 15],3600 nM,2000 nM,473 nM,> 10000 nM,
CN1C(=N)NC2(c3cc(F)ccc3F)CN(c3ncccc3-c3sccc3Cl)CC2C1=O (centres unmarked) [R/S‐WM396 (25)],1110 nM,350 nM,9 nM,200 nM,more potent against PMX (P. falciparum PMX; than the unsubstituted comparator analog 24): 8 ×
Cc1ccccc1-c1cccnc1N1CC2C(=O)N(C)C(=N)NC2(c2cc(F)ccc2F)C1 (centres unmarked) [Compound 9],610 nM,5500 nM,2070 nM,> 10000 nM,
CN1C(=N)NC2(c3cc(F)ccc3F)CN(c3ncccc3-c3ccc(F)cc3Cl)CC2C1=O (centres unmarked) [Compound 21],967 nM,3230 nM,990 nM,> 10000 nM,
"CN1C(=N)NC2(c3cc(F)ccc3F)CN(c3n[nH]cc3-c3ccccc3)CC2C1=O (centres unmarked) [R/S‐WM447 (28), 7a‐(2,5‐difluorophenyl)‐2‐imino‐3‐methyl‐6‐(4‐phenyl‐1H‐pyrazol‐3‐yl)hexahydro‐1H‐pyrrolo[3,4‐d]pyrimidin‐4(4aH)‐one]",683 nM,2170 nM,64 nM,1530 nM,
CN1C(=N)NC2(c3cc(F)ccc3F)CN(c3ncccc3-c3ccc(Cl)c(Cl)c3)CC2C1=O (centres unmarked) [Compound 19],> 3700 nM,434 nM,187 nM,> 10000 nM,
CN1C(=N)NC2(c3cc(F)ccc3F)CN(c3ncccc3-c3ccccc3)CC2C1=O (centres unmarked) [Compound 6],440 nM,3000 nM,1070 nM,> 10000 nM,
Cc1ccc(-c2cccnc2N2CC3C(=O)N(C)C(=N)NC3(c3cc(F)ccc3F)C2)c(Cl)c1 (centres unmarked) [Compound 22],690 nM,1630 nM,420 nM,> 10000 nM,
CN1C(=N)NC2(c3cc(F)ccc3F)CN(c3ncccc3-c3ccccc3C(F)(F)F)CC2C1=O (centres unmarked) [Compound 10],3450 nM,3970 nM,1280 nM,> 10000 nM,
CN1C(=N)NC2(c3cc(F)ccc3F)CN(c3ncccc3-c3ccccc3Cl)CC2C1=O (centres unmarked) [R/S‐WM36 (8)],807 nM,4870 nM,1100 nM,> 10000 nM,inhibition of P. falciparum asexual parasite replication / antimalarial activity (in words) ([3]; blood stage): did not inhibit
COc1cccc(-c2cccnc2N2CC3C(=O)N(C)C(=N)NC3(c3cc(F)ccc3F)C2)c1 (centres unmarked) [Compound 13],1500 nM,390 to 1170 nM and 1170 nM,390 to 1170 nM and 473 nM,> 10000 nM,
CCC1(CC)CC(=O)N([C@@H]2CCOc3ccc(C(=O)N[C@H]4CC(C)(C)Oc5ccccc54)cc32)C(=N)N1 [WM382 (5)],,,,,IC50 (PMV): > 1000 nM; IC50 (PMIX): 0.4 nM; IC50 (PMX): 0.04 nM; EC50 [4]: 0.6 nM
CN1C(=N)NC2(c3cc(F)ccc3F)CN(c3ncccc3-c3ccccc3F)CC2C1=O (centres unmarked) [Compound 7],1020 nM,4530 nM,1330 nM,> 10000 nM,
Cc1c(NC(=O)c2cccc(C#N)c2)cccc1[C@]1(C)CC(=O)N([C@H]2CCO[C@@H](C)C2)C(=N)N1 [UCB7362 (4)],,,,,IC50 (PMIX): 142 nM; IC50 (PMX): 7 nM; EC50 [4]: 10 nM
CN1C(=N)NC2(c3cc(F)ccc3F)CN(c3ncsc3-c3ccccc3)CC2C1=O (centres unmarked) [Compound 27],440 nM,990 nM,473 nM,> 10000 nM,
CC(C)C[C@H](NC(=O)[C@@H](NC(=O)[C@H](CCONC(=N)N)NC(=O)OCc1ccccc1)C(C)C)[C@@H](O)CC(=O)NCCc1ccccc1 [WEHI-842 (1)],,,,,IC50 (PMV): 19 nM; IC50 (PMV; stated in text with reference to Fig. 1): < 20 nM; IC50 (PMIX): > 50000 nM; IC50 (PMX): 1700 nM; EC50 [4]: 430 nM
"CN1C(=N)NC2(c3cc(F)ccc3F)CN(c3ncccc3-c3ccc(Cl)cc3)CC2C1=O (centres unmarked) [R/S‐WM48 (14), 6‐(3‐(4‐chlorophenyl)pyridin‐2‐yl)‐7a‐(2,5‐difluorophenyl)‐2‐imino‐3‐methylhexahydro‐1H‐pyrrolo[3,4‐d]pyrimidin‐4(4aH)‐one]",357 nM,1080 nM,343 nM,> 10000 nM,
CN1C(=N)NC2(c3cc(F)ccc3F)CN(c3nn(C)cc3-c3ccccc3)CC2C1=O (centres unmarked) [Compound 29],1050 nM,10400 nM,3470 nM,> 10000 nM,
COc1ccc(-c2cccnc2N2CC3C(=O)N(C)C(=N)NC3(c3cc(F)ccc3F)C2)c(Cl)c1 (centres unmarked) [Compound 23],3170 nM,1630 nM,420 nM,> 10000 nM,
CN1C(=N)NC2(c3cc(F)ccc3F)CN(c3ncccc3-c3ccc(Cl)s3)CC2C1=O (centres unmarked) [Compound 26],610 nM,,70 nM,2500 nM,
CN1C(=N)NC2(c3cc(F)ccc3F)CN(c3ncccc3-c3ccc(Cl)c(F)c3)CC2C1=O (centres unmarked) [Compound 20],1010 nM,1150 nM,440 nM,> 10000 nM,
CN1C(=N)NC2(c3cc(F)ccc3F)CN(c3ncccc3-c3ccc(Cl)cc3C(F)(F)F)CC2C1=O (centres unmarked) [Compound 18],> 3700 nM,1080 nM,483 nM,> 10000 nM,
CN1C(=N)NC2(c3cc(F)ccc3F)CN(c3ncccc3-c3ccc(Cl)cc3Cl)CC2C1=O (centres unmarked) [Compound 17],517 nM,360 nM,1070 nM,> 10000 nM,
